{"source": "patent US7531629B2", "about": "“Tumor associated antigen peptides and use of same as anti-tumor vaccines” (Yeda Research and Development Co. Ltd., priority 1998, dated 2009)", "key": {"RMA-S-HhD cells [1]": {"tested_on": "RMA-S-HhD cells", "experiment": "CTL from peptide-immunized HhD mice against loaded RMA-S-HhD target cells", "format": "in vivo", "conditions": "for ability to evoke specific CTL responses (lysis of peptide-loaded target cells): additional Uroplakin Ib, II, III peptides, three weekly immunizations, FIGS. 23a-e; for lysis of RMA-S-HhD target cells loaded with MUC-1 peptide: immunization with a pool of the MUC-1-derived synthetic peptides; for lysis of RMA-S-HhD targets loaded with homologous BA-46 peptide: CTL from HhD mice immunized with BA-46 peptides; for lymphocyte response specifically lysing CRIPTO-1 peptide-loaded target cells: HhD mice immunized with CRIPTO-1 peptide pools, FIGS. 24a-c", "protocol": "(§1) Vaccination: Mice were immunized intraperitonealy three times at 7-day intervals, with 2×10^6 irradiated (5,000 rad) tumor cells, or with peptide-loaded RMA-S-HhD-B7.1 transfectants. Peptide loading of RMA-S-HhD-B7.1 cells was performed as follows: After washing the cells 3 times in PBS, the surface expression of HhD monochins was stabilized by a 4 hours culture at 26° C. Synthetic peptides, or peptide extracts were added to 10×10^6 cells in 1 ml of opti-MEM (Gibco) medium to a concentration of 100 μM or 1 mM, respectively. The cells were incubated at 26° C. and for additional 3 hours at 37° C. Peptide loaded RMA-S-HhDσ-σB7.1 cells were irradiated (5000 rad), washed, resuspended in PBS and injected into mice. In mixed synthetic vaccines, RMA-S-HhD-B7.1 cells were loaded separately with each peptide and pooled before vaccination.\n(§2) In vitro cytotoxicity assays: Mice were immunized intraperitonealy three times at 7-day intervals, with 2×10^6 irradiated (5,000 rad) tumor cells, or with peptide-loaded RMA-S-HhD-B7.1 transfectants. Spleens were removed on day 10 after the last immunization and splenocytes were restimulated in vitro with either irradiated tumor cells (for mice immunized with tumor cells) or with lymphocytes pulsed with 100 μM synthetic peptides or 1 mM patients-derived extract in opti-MEM (Gibco) medium. Restimulated lymphocytes were maintained in RPMI 1640 medium containing 10% FCS, 1 mM glutamine, combined antibiotics, 1 mM sodium pyruvate, 10 mM HEPES, pH 7.4, 5×10^−5 M β-mercaptoethanol, and 1% nonessential amino acids (RPMI-HEPES medium) for 5 days. Viable lymphocytes (effector cells), were separated by lymphocyte-M (Cedarlane, Ontario, Canada) centrifugation, resuspended in RPMI-HEPES medium, and admixed at different ratios with 5×10^3 peptide loaded RMA-S-HhD cells, previously loaded with different peptides (see vaccination). CTL assays were performed in U-shaped microtiter wells, at 37° C., 5% CO2 for 5 hours. Cultures were terminated by centrifugation at 1,000 rpm for 10 minutes at 4° C. A total of 100 μl of the supernatants was mixed with scintillation fluids and counted in a beta counter. […] Spontaneous release was determined by incubation of 100 μl-labeled target cells with 100 μl of medium. Maximal release was determined by solubilization of target cells in 100 μl 0.1 M NaOH.\nCTL induced in HhD mice recognize the same UP II peptides as human PBL: The immunogenicity of Uroplakin homologue peptides was also evaluated in a mouse model, in which the murine MHC class I genes are not expressed (D^b−/−, β2-microglobulin −/−, double knockout) and which is transgenic for a HLA-A2 and human β2-microglobulin monochain (HhD mice). The advantage of a HLA-A2 transgenic mouse model is that CTL epitopes can be detected more easily and reproducibly, without lengthy and repeated in vitro stimulations. The murine MHC knockout mice used herein has the additional advantage that their CTL repertoire is only HLA-A2 restricted and the CTL response against human tumor extract or human cell lines is not masked by a potential xenogeneic response. HhD mice were immunized with the 7 Uroplakin II homologue peptides or with the same TCC peptide extract used for stimulation of patient's PBL. Lymphocytes were obtained from the spleens of these mice and restimulated in vitro once with the corresponding peptides. […]"}, "[2]": {"experiment": "MHC stabilization assay: peptide binding to HhD on RMA-S-HhD cells, indirect FACS", "design": "species or system human", "conditions": "peptide loaded RMA-S-HhD cells", "protocol": "Measurement of peptide binding by stabilization of cell surface MHC: Peptide binding to HhD was measured by stabilization of HhD on RMA-S transfectants, using an indirect FACS assay as follows: 5×10^5 peptide loaded TAP-2 deficient RMA-S-HhD cells (see vaccination), were incubated with anti HLA monoclonal antibodies for 30 minutes at 4° C. After washing the cells with PBS-0.5%, BSA+0.1%, sodium azide, the second antibody, goat anti mouse-FITC (Jackson Lab.), was applied for 30 minutes at 4° C. Following washing, the amount of bound antibodies was detected by FACSscan […].\nMouse monoclonal antibodies. B-9-12, w6/32 (anti HLA A, B, C) and B.B7.2 (anti HLA-A2.1) were used for analyses.\nCytotoxic activity of human peripheral blood lymphocytes (PBL) against target cells pulsed with Uroplakin II peptide homologues: The human UP II amino acid sequence was screened for potential HLA-A2 binding, 9 amino acids peptides by a HLA binding motif program. We chose that particular HLA allele because it is present in 45% of the population. Seven 9-mer peptides, which were predicted to bind with high affinity to HLA-A2 were selected and synthesized (Table 1). The binding of these peptides to HLA-A2 was tested by an MHC stabilization assay utilizing TAP negative cells, which can present exogeneously bound peptides. The RMA-S cells (30) transfected by the HhD construct were loaded with various concentrations of UP II peptides and then reacted with anti-HLA antibody. High affinity binding was shown for all 7 peptides by FACS analyses (FIG. 1)."}, "RMA-S-HhD cells [3]": {"tested_on": "RMA-S-HhD cells", "experiment": "CTL from HhD mice immunized with tumor extracted peptides or DU145-HhD cells against loaded RMA-S-HhD target cells", "format": "cell-based", "conditions": "for recognition and lysis of peptide loaded targets by anti-tumor extract CTL: CTL against breast tumor peptide extracts, E:T 50:1", "protocol": "as §1\nas §2, with “Cultures were terminated by centrifugation at 1,000 rpm for 10 minutes at 4° C.” left out\nCTL induced in HhD mice recognize the same UP II peptides as human PBL: The immunogenicity of Uroplakin homologue peptides was also evaluated in a mouse model, in which the murine MHC class I genes are not expressed (D^b−/−, β2-microglobulin −/−, double knockout) and which is transgenic for a HLA-A2 and human β2-microglobulin monochain (HhD mice). The advantage of a HLA-A2 transgenic mouse model is that CTL epitopes can be detected more easily and reproducibly, without lengthy and repeated in vitro stimulations. […]"}, "MDA-MB-157-HhD cells": {"tested_on": "MDA-MB-157-HhD cells", "experiment": "Lysis of MDA-MB-157-HhD breast carcinoma cells by CTL from immunized HhD mice", "format": "in vitro", "conditions": "CTL from HhD mice immunized with the named substance"}, "prostate cancer": {"tested_on": "prostate cancer", "conditions": "DC based vaccine, 51 prostate cancer patients, HLA-A2; cited from earlier work"}, "T2 cells": {"tested_on": "T2 cells", "experiment": "CTL assay with patients' PBL resensitized with pooled TCC extracted peptides", "format": "cell-based, human", "conditions": "CTL from TCC patients' PBL"}}}
{"sequence": "AILCWTFWV (listed as Homo sapiens) [Uroplakin Ib/B1]", "values": [{"measurement": "ability to evoke specific CTL responses (lysis of peptide-loaded target cells)", "setting": "RMA-S-HhD cells [1]", "value": "could elicit lymphocytes which specifically lysed target cells"}]}
{"sequence": "ALASTAPPV (listed as Homo sapiens) [MUC-1/E6]", "values": [{"measurement": "peptide binding to HhD, stabilization of cell surface HhD (FACS)", "setting": "[2]", "value": "higher binding affinity"}, {"measurement": "lysis of RMA-S-HhD target cells loaded with MUC-1 peptide", "setting": "RMA-S-HhD cells [1]", "value": 15, "unit": "%"}, {"measurement": "recognition and lysis of peptide loaded targets by anti-tumor extract CTL", "setting": "RMA-S-HhD cells [3]", "value": "recognized and lysed"}, {"measurement": "lysis of breast carcinoma line HhD transfectant (MDA-MB-157-HhD) relative to parental cells", "setting": "MDA-MB-157-HhD cells", "value": "Preferential lysis"}]}
{"sequence": "ALFDIESKV (listed as Homo sapiens) [PSMA5]", "values": [{"measurement": "patients responding by decreased levels of serum PSA", "setting": "prostate cancer", "value": 7, "unit": "patients"}]}
{"sequence": "FILMFIVYA (listed as Homo sapiens) [Uroplakin Ib/B2]", "values": [{"measurement": "ability to evoke specific CTL responses (lysis of peptide-loaded target cells)", "setting": "RMA-S-HhD cells [1]", "value": "could elicit lymphocytes which specifically lysed target cells"}]}
{"sequence": "FLLVGFAGA (listed as Homo sapiens) [Uroplakin III/3.3]", "values": [{"measurement": "ability to evoke specific CTL responses (lysis of peptide-loaded target cells)", "setting": "RMA-S-HhD cells [1]", "value": "could elicit lymphocytes which specifically lysed target cells"}]}
{"sequence": "FLSFHISNL (listed as Homo sapiens) [MUC-1/F6]", "values": [{"measurement": "lysis of RMA-S-HhD target cells loaded with MUC-1 peptide", "setting": "RMA-S-HhD cells [1]", "value": 15, "unit": "%"}]}
{"sequence": "GLQHWVPEL (listed as Homo sapiens) [BA-46-7]", "values": [{"measurement": "lysis of RMA-S-HhD targets loaded with homologous BA-46 peptide", "setting": "RMA-S-HhD cells [1]", "value": 60, "unit": "%"}]}
{"sequence": "ILCWTFWVL (listed as Homo sapiens) [Uroplakin Ib/B5]", "values": [{"measurement": "ability to evoke specific CTL responses (lysis of peptide-loaded target cells)", "setting": "RMA-S-HhD cells [1]", "value": "could elicit lymphocytes which specifically lysed target cells"}]}
{"sequence": "ILNAYLVRV (listed as Homo sapiens) [Uroplakin III/3.2]", "values": [{"measurement": "ability to evoke specific CTL responses (lysis of peptide-loaded target cells)", "setting": "RMA-S-HhD cells [1]", "value": "could elicit lymphocytes which specifically lysed target cells"}]}
{"sequence": "KILLAYFIL (listed as Homo sapiens) [Uroplakin Ib/B6]", "values": [{"measurement": "ability to evoke specific CTL responses (lysis of peptide-loaded target cells)", "setting": "RMA-S-HhD cells [1]", "value": "could elicit lymphocytes which specifically lysed target cells"}]}
{"sequence": "KMARFSYSV (listed as Homo sapiens) [Cripto-1/C1]", "values": [{"measurement": "lymphocyte response specifically lysing CRIPTO-1 peptide-loaded target cells", "setting": "RMA-S-HhD cells [1]", "value": "can elicit lymphocyte response which specifically lyses CRIPTO-1 peptide-loaded target cells"}]}
{"sequence": "KMVRFSYSV (listed as Homo sapiens) [Cripto-1/C10]", "values": [{"measurement": "lymphocyte response specifically lysing CRIPTO-1 peptide-loaded target cells", "setting": "RMA-S-HhD cells [1]", "value": "can elicit lymphocyte response which specifically lyses CRIPTO-1 peptide-loaded target cells"}]}
{"sequence": "LLLTVLTVV (listed as Homo sapiens) [MUC-1/D6]", "values": [{"measurement": "peptide binding to HhD, stabilization of cell surface HhD (FACS)", "setting": "[2]", "value": "higher binding affinity"}, {"measurement": "lysis of RMA-S-HhD target cells loaded with MUC-1 peptide", "setting": "RMA-S-HhD cells [1]", "value": 38, "unit": "%"}, {"measurement": "recognition and lysis of peptide loaded targets by anti-tumor extract CTL", "setting": "RMA-S-HhD cells [3]", "value": "recognized and lysed"}, {"measurement": "lysis of breast carcinoma line HhD transfectant (MDA-MB-157-HhD) relative to parental cells", "setting": "MDA-MB-157-HhD cells", "value": "Preferential lysis"}]}
{"sequence": "MLAGICLSI (listed as Homo sapiens) [Cripto-1/C12]", "values": [{"measurement": "lymphocyte response specifically lysing CRIPTO-1 peptide-loaded target cells", "setting": "RMA-S-HhD cells [1]", "value": "can elicit lymphocyte response which specifically lyses CRIPTO-1 peptide-loaded target cells"}]}
{"sequence": "MLVGICLSI (listed as Homo sapiens) [Cripto-1/C8]", "values": [{"measurement": "lymphocyte response specifically lysing CRIPTO-1 peptide-loaded target cells", "setting": "RMA-S-HhD cells [1]", "value": "can elicit lymphocyte response which specifically lyses CRIPTO-1 peptide-loaded target cells"}]}
{"sequence": "NLFETPVEA (listed as Homo sapiens) [BA-46-6]", "values": [{"measurement": "lysis of RMA-S-HhD targets loaded with homologous BA-46 peptide", "setting": "RMA-S-HhD cells [1]", "value": 40, "unit": "%"}]}
{"sequence": "NLTISDVSV (listed as Homo sapiens) [MUC-1/A7]", "values": [{"measurement": "peptide binding to HhD, stabilization of cell surface HhD (FACS)", "setting": "[2]", "value": "higher binding affinity"}, {"measurement": "lysis of RMA-S-HhD target cells loaded with MUC-1 peptide", "setting": "RMA-S-HhD cells [1]", "value": 30, "unit": "%"}, {"measurement": "recognition and lysis of peptide loaded targets by anti-tumor extract CTL", "setting": "RMA-S-HhD cells [3]", "value": "recognized and lysed"}, {"measurement": "lysis of breast carcinoma line HhD transfectant (MDA-MB-157-HhD) relative to parental cells", "setting": "MDA-MB-157-HhD cells", "value": "Preferential lysis"}]}
{"sequence": "RLLAALCGA (listed as Homo sapiens) [BA-46-9]", "values": [{"measurement": "lysis of RMA-S-HhD targets loaded with homologous BA-46 peptide", "setting": "RMA-S-HhD cells [1]", "value": 40, "unit": "%"}]}
{"sequence": "VLLSVAMFL (listed as Homo sapiens) [Uroplakin II/8]", "values": [{"measurement": "ability to evoke specific CTL responses (lysis of peptide-loaded target cells)", "setting": "RMA-S-HhD cells [1]", "value": "could elicit lymphocytes which specifically lysed target cells"}]}
{"sequence": "YMDGTMSQV [Tyrosinase, reference compound]", "values": [{"measurement": "lysis of T2 cells loaded with nonspecific peptides", "setting": "T2 cells", "value": "no lysis"}, {"measurement": "lysis of loaded RMA-S-HhD cells, lytic units (LU30)", "setting": "RMA-S-HhD cells [1]; CTL from HhD mice immunized with human Uroplakin II peptides 1-7, substance loaded on targets", "value": "no lysis"}, {"measurement": "ability to evoke specific CTL responses (lysis of peptide-loaded target cells)", "setting": "RMA-S-HhD cells [1]", "value": "no significant lysis"}, {"measurement": "lysis of targets loaded with nonspecific peptides", "setting": "RMA-S-HhD cells [1]; overall, all immunized groups of Example 2", "value": "no lysis"}, {"measurement": "specific lysis of loaded RMA-S-HhD cells", "setting": "RMA-S-HhD cells [3]; CTL from HhD mice immunized with breast tumor extract peptide, E:T 100:1", "value": "No lysis"}]}
